Measured values reported in PMC9704104, “Towards safer anti-inflammatory therapy: synthesis of new thymol–pyrazole hybrids as dual COX-2/5-LOX inhibitors” (Journal of Enzyme Inhibition and Medicinal Chemistry, 2022).
“And” between values parts separate entries of the source, which are not always exact repeats. Equal entries are not always repeated. “Also recorded” adds a separate entry of the source. Where two headings read alike, the source gives them in different places. Marks after values point to notes of the source that are not given here.

Key:
[1] = tested on: formalin-induced rat paw oedema; assay: Formalin-induced paw oedema test (acute inflammation model); assay type: in vivo; conditions: for % Inhibition of oedema volume, Mean ± SD / inhibition in vivo at 5 mg/kg / Volume of oedema (ml) 4h, Mean ± SD / % inhibition of paw oedema compared with reference drugs (in words): 4 h; for inhibition in vivo at 5 mg/kg: Rattus norvegicus; for inhibition in vivo at 5 mg/kg / Volume of oedema (ml) 4h, Mean ± SD: po; for % inhibition of paw oedema compared with reference drugs (in words): comparison with celecoxib or diclofenac sodium; for % Relative potency (4h) celecoxib / % Relative potency (4h) celecoxib, Mean ± SD: relative to % inhibition of celecoxib at 4 h; for % Relative potency (4h) diclofenac, Mean ± SD / % Relative potency (4h) diclofenac: relative to % inhibition of diclofenac at 4 h
Description: Animals Adult female albino rats weighing 150-250 g were used (Experimental Animal Centre in Alexandria University). All animals accessed to food and water ad libitum and were housed in 12 h dark/light cycle in a controlled condition at 23-250C. They were allowed to acclimatize for 1 week prior to experimentation. Procedures involving animals and their care were conducted in conformity with the Guide for the Care and Use of Laboratory Animals published by US National Institute of Health4 (NIH publication No. 83-23, revised) and following the ethical guidelines of Alexandria University on laboratory animals. In all tests, adequate considerations were adopted to reduce pain or discomfort of animals (Approved by AlexU-IACUC) 3. […]
Formalin-induced paw edema test (acute inflammation model):
A solution of freshly prepared formalin 5% was used as a phlogistic agent. A mark was made on the lateral malleolus of the rats’ paws delineating the injection sites. The initial volume of paw was measured by means of digital calibrated Vernier caliper .
After 45 minutes, 40 μl formalin were injected subcutaneously into the sub plantar tissue of the right hind paw of all groups under light ether anesthesia . An equal volume of saline was injected into the left hind paw and served as internal control for the degree of inflammation in the right hind paw. 5, 6 The volume of paw was measured in different treatment groups, 4 h following the formalin injection and the amount of increase in paw volume (edema volume) was calculated by subtracting the volumes before and 4 h after the injection of formalin. Edema was expressed as an increase in the volume of paw, and the percentage of edema inhibition (or percent protection against inflammation) for each rat and each group was calculated according to the following equation: […]
Where Vt is the mean volume of edema at specific time interval (4 h) and Vo is the mean volume of edema […]
Relative potency of the tested compounds was expressed as % inhibition of edema for the tested compounds

[2] = tested on: gastric mucosa; assay: In vivo gastric ulcerogenic activity (gross examination of gastric mucosa); conditions: fasted rats, 60 mg/kg orally, six hours after treatment
[3] = molecular target: T1, COX-1 (Ovis aries, UniProt P05979); assay: In vitro COX-1 inhibitory assay (Cayman colorimetric COX (ovine) inhibitor screening assay kit); assay type: biochemical; conditions: mean of three replicates ± SD
T1 construct: purchased Cayman chemicals 560131
T1 sequence (P05979 25-600): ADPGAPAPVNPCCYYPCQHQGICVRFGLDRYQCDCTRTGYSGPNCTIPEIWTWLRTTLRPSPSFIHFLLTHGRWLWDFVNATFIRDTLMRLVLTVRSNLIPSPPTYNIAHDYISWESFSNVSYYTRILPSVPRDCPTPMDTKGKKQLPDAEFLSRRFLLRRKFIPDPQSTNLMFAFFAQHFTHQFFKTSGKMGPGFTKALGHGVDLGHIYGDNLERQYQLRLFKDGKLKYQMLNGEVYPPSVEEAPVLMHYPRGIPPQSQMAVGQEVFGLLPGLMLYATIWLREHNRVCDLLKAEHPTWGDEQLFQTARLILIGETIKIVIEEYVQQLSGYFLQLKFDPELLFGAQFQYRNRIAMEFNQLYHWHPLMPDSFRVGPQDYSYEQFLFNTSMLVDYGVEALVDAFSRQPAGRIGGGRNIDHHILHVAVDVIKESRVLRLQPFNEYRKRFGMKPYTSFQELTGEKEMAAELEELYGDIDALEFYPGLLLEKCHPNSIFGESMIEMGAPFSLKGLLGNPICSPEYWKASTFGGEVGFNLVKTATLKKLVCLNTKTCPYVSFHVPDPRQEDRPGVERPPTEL
Description: (Page: S20, Supplementary file).
Anti-inflammatory activity
In vitro COX-1 and COX-2 inhibitory assay […]
supplied by Cayman chemicals, Ann Arbor, MI, USA according to reported method 1. The colorimetric COX inhibitor screening assay utilizes the peroxidase component of cyclooxygenase. The peroxidase activity was assayed calorimetrically by monitoring the appearance of oxidized N,N,N',N'-tetramethyl-1,4-phenylenediamine (TMPD) at 590nm. The appearance of reagent was carried out following the instructions […]
The half- maximal inhibitor concentrations (IC50µM) were determined and the selectivity index (SI) values were calculated as IC50 (COX-1)/IC50 (COX-2).
1) Background wells- 160 µL of assay buffer and 10 µL of heme were added to background wells.
2) The 100% Initial activity wells- 150 µL of assay buffer, 10 µL of heme and 10 µL of enzyme (COX-1 or COX-2) were added.
3) Inhibitor well- 150 µL of assay buffer, 10 µL of heme and 10 µL of enzyme were added.
4) 10 µL of inhibitor (3 concentrations) in DMSO was added to the inhibitor wells to yield a final […]
5) 10 µL of solvent (DMSO) was added to the 100% Initial activity wells and background wells.
7) 20 µL of colorimetric substrate solution (TMPD) was added to all wells.
8) 20 µL of arachidonic acid was added to all wells to yield a final concentration of 100 µM.
10) The absorbance was measured at 590 nm using a plate reader.
The calculations were carried out in the following manner:
1) The average absorbance of all samples was determined.
2) The absorbance of background wells was subtracted from absorbance of the 100% Initial activity […]
3) Percent inhibition = (100% Initial activity – Inhibitor wells/ 100% Initial activity)∗ 100 […]
Place the 96-well plate on a shaker for at least five minutes. […]

[4] = tested on: 5-LOX; assay: In vitro 5-LOX inhibitory assay (Abnova 5-LOX inhibitor screening assay kit); assay type: biochemical
Description: The newly synthesised compounds were screened for their ability to inhibit 5-LOX enzymes. […] (Page: S21, Supplementary file). […]
In vitro LOX inhibitory assay
Inhibitor Screening Assay Kit detects and measures the hydroperoxides produced in the lipoxygenation reaction using a purified LOX. The detection reaction is equally sensitive to hydroperoxides at various positions within the fatty acid and will work with fatty acids of any carbon length. It is thus a general detection method for 5-LOX and can be used to screen libraries of compounds for those which inhibit 5 -LOX enzymes.
1) Blank Wells- add 100 µL of assay buffer to at least two wells.
2) Positive Control Wells- Lipoxygenase (15-LO standard) add 90 µL 15-LO and 10 µL of assay buffer […]
3) 100% Initial Activity Wells- add 90 µL 15-LO and 10 µL of solvent (DMSO) (the same solvent to dissolve the inhibitor) to two wells. The 100% initial activity wells should result in approximately 10 […]
4) Inhibitor Wells- add 90 µL of sample and I10 µL of inhibitor to two wells.
5) Initiate the reaction by adding 10 µL of substrate (either arachidonic acid or linoleic acid) to all the wells. Place the 96-well plate on a shaker for at least five minutes.
6) Add 100 µL of chromogen to each well to stop enzyme catalysis and develop the reaction. Cover with a plate cover and place the 96-well plate on a shaker for at least five minutes.
7) Remove the cover and read the absorbance at 490-500 nm using a plate reader.
Inhibitors were dissolved in DMSO. The inhibitors were added to the assay in a final volume of 10 µL before initiating with substrate. Three concentrations were prepared (25, 50 and 100 µM) to determine the concentration produced 50% enzyme inhibition.
2) The absorbance of blank wells was subtracted from absorbance of the 100% Initial activity and the […]

[5] = group mean ± SD, 5 mg/kg orally
[6] = 4 h minus 0, group mean ± SD, 5 mg/kg orally
[7] = read-out: % Inhibition of oedema volume, 4 h, individual rats 1-3, 5 mg/kg orally
[8] = read-out: % Inhibition of oedema volume, Mean ± SD, 4 h, group mean ± SD, 5 mg/kg orally
[9] = group mean ± SD, 5 mg/kg orally, read-out: % Inhibition of oedema volume, Mean ± SD
[10] = individual rats 1-3, 5 mg/kg orally, read-out: % Inhibition of oedema volume
[11] = individual rats 1-3, 5 mg/kg orally, 5 mg/kg

SMILES	% Inhibition of oedema volume, Mean ± SD [1, 5]	Abs diff., Mean ± SD [1, 6]	inhibition in vivo at 5 mg/kg [1, 7] [%]	inhibition in vivo at 5 mg/kg [1, 8] [%]	Volume of oedema (ml) 4h, Mean ± SD ([1]; 5 mg/kg)	Gross appearance of gastric mucosa (ulcerogenic potential) [2]	IC50 [3] [µM]	IC50 [4] [µM]	% inhibition of paw oedema compared with reference drugs (in words) ([1]; 5 mg/kg orally)	inhibition in vivo at 5 mg/kg [1, 9] [%]	inhibition in vivo at 5 mg/kg [1, 10] [%]	% Relative potency (4h) celecoxib ([1]; individual rats 1-3)	% Relative potency (4h) diclofenac, Mean ± SD ([1]; group mean ± SD) [%]	% Relative potency (4h) diclofenac ([1]; individual rats 1-3)	Gross appearance of gastric mucosa (ulcerogenic potential) ([2]; 60 mg/kg)	% Relative potency (4h) celecoxib, Mean ± SD ([1]; group mean ± SD) [%]	Volume of oedema (ml) 0 [1, 11] [mL]	Volume of oedema (ml) 4h ([1]; 4 h after formalin, individual rats 1-3, 5 mg/kg orally, 5 mg/kg) [mL]	Abs diff. ([1]; 4 h minus 0, individual rats 1-3, 5 mg/kg orally, 5 mg/kg)
Cc1ccc(-c2cc(C(F)(F)F)nn2-c2ccc(S(N)(=O)=O)cc2)cc1 [Celecoxib, reference compound]	36.33 ± 2.05%	1.38^a ± 0.06	35.2	36.4	5.69^a ± 0.02 ml	no ulceration													
Cc1ccc(C(C)C)c(O)c1C=NNC(=O)c1cc(-c2ccccc2)n[nH]1 [Compound 4a, N'-(2-Hydroxy-3-isopropyl-6-methylbenzylidene)-3-phenyl-1H-pyrazole-5-carbohydrazide]							10.3 ± 0.1	3.05 ± 0.067	double % inhibition exhibited by Celecoxib	81.9	84.2	239.70% and 192.90% and 244.0%	156.4 ± 20.52	178.10% and 137.30% and 153.80%	No gross ulceration				
Cc1ccc(C(C)C)c(O)c1C=NNC(=O)c1cc(-c2ccc(Br)cc2)n[nH]1 [Compound 4b, 3-(4-Bromophenyl)-N'-(2-hydroxy-3-isopropyl-6-methylbenzylidene)-1H-pyrazole-5-carbohydrazide]							11.8 ± 0.15	1.84 ± 0.06			55.9	159.0% and 136.90% and 150.70%	103.5 ± 12.68	118.10% and 97.50% and 95.0%	No gross ulceration	148.9 ± 11.16	5.15		
Cc1ccc(C(C)C)c(O)c1C=NNC(=O)c1cc(-c2ccccc2)n(-c2ccc(S(N)(=O)=O)cc2)n1 [Compound 8a, 4-(3-(2–(2-Hydroxy-3-isopropyl-6-methylbenzylidene)hydrazine-1-carbonyl)-5-phenyl-1H-pyrazol-1-yl)benzenesulfonamide]							11.2 ± 0.15	1.96 ± 0.036	slightly less % inhibition than that of Diclofenac sodium		40.1	114.10% and 92.90% and 113.30%	74.10 ± 9.64	84.80% and 66.10% and 71.40%	variable degrees of hyperaemia; also recorded: Hyperemia without gross ulceration	106.8 ± 12.02	5.02	6.35	
Cc1ccc(C(C)C)c(O)c1C=NNC(=O)c1cc(-c2ccc(Br)cc2)n(-c2ccccc2)n1 [Compound 8e, 5-(4-Bromophenyl)-N'-(2-hydroxy-3-isopropyl-6-methylbenzylidene)-1-phenyl-1H-pyrazole-3-carbohydrazide]							11.24 ± 0.075	2.56 ± 0.025			59.5	169.20% and 127.40% and 150.70%	103.8 ± 19.09	125.70% and 90.70% and 95.0%		149.1 ± 20.95			
COc1ccc(-c2cc(C(=O)NN=Cc3c(C)ccc(C(C)C)c3O)nn2-c2ccccc2)cc1 [Compound 8f, 5-(4-Methoxyphenyl)-N'-(2-hydroxy-3-isopropyl-6-methylbenzylidene)-1-phenyl-1H-pyrazole-3-carbohydrazide]							11.2 ± 0.57	2.91 ± 0.064	slightly less % inhibition than that of Diclofenac sodium	46.3 ± 3.67	50.5	143.60% and 115.50% and 124.0%	89.03 ± 15.43	106.70% and 82.20% and 78.20%		127.7 ± 14.41	5.15		1.20
O=C(O)Cc1ccccc1Nc1c(Cl)cccc1Cl [Diclofenac sodium, reference compound]	52.53^b ± 4.59%	1.03^ab ± 0.12	47.3	52.4	5.30^ab ± 0.09 ml	no ulceration													
